From patent US8129415B2 come the findings set out here.

The data set can be described thus: logP by HPLC on reversed-phase column (C 18), EEC Directive 79/831 Annex V.A8. It is filed as physicochemical. As to conditions: for LogP: HPLC reversed-phase C 18, 40° C., 0.1% aqueous formic acid and acetonitrile gradient.

Text: Mobile phases: 0.1% aqueous formic acid and acetonitrile; linear gradient from 10% acetonitrile to 90% acetonitrile.

The term LogP denotes a log measure of how a compound divides between an organic and an aqueous phase. Low readings indicate a more hydrophilic compound, high ones a more lipophilic compound. `CCCCCC(=O)Nc1nc(CON=C(c2cnccc2OC)n2nnnc2C)cs1` [compound 136] showed a log partition coefficient (LogP) of 3.44.
Still for that read-out and setting: the figure for `Cc1nnnn1C(=NOCc1csc(NC(=O)NC2CC2)n1)c1ccc(Cl)nc1` [compound 48] is 1.98.
Same read-out and setting: the figure for `CCCC(=O)Nc1nc(CON=C(c2cccc(C)n2)n2nnnc2C)cs1` [compound 82] is 2.38; for `Cc1cccc(C(=NOCc2csc(NC(=O)c3ccccc3)n2)n2nnnc2C)n1` [compound 83] it is 2.78.
The same measure, in the same setting: the figure for `CCCCCC(=O)Nc1nc(CON=C(c2ccccn2)n2nnnc2C)cs1` [compound 4] is 2.7.
`CCCC(=O)Nc1cccc(CON=C(c2cccc(C)n2)n2nnnc2C)n1` [compound 90] gave a log partition coefficient (LogP) of 2.7.
On the same count and under the same terms, the figure for `Cc1nc(CON=C(c2ccccn2)n2nnnc2C)cs1` [compound 7] is 1.76.
A word on the chromatographic logP: it is lipophilicity estimated from chromatographic retention. A low value points to lower lipophilicity. In the case of `Cc1cccnc1/C(=N\OCc1csc(N)n1)c1nnnn1C` [compound 157, O-(2-Amino-1,3-thiazol-4-yl)methyl-(3-methylpyridin-2-yl)-(1-methyltetrazol-5-yl)methanone Oxime], the chromatographic logP was found to be 1.04.
`Cc1cccc(C(=NOCc2csc(N)n2)n2nnnc2C)n1` [compound 80]: the LogP is given as 1.2.
Molecule `COCCC(=O)Nc1nc(CON=C(c2cnccc2OC)n2nnnc2C)cs1` [compound 138] showed a LogP of 2.25.
The same measure, in the same setting: the figure for `COc1ncccc1C(=NOCc1csc(N)n1)n1nnnc1C` [compound 154] is 1.24; for `COc1ccncc1C(=NOCc1csc(NC(=O)c2ccccc2)n1)n1nnnc1C` [compound 137] it is 3.13.
Still for that read-out and setting: the figure for `Cc1nnnn1C(=NOCc1csc(NC(=O)NCc2ccccc2)n1)c1ccccn1` [compound 15] is 2.15.
Turning to `Cc1cccc(C(=NOCc2csc(NC(=O)NCCc3ccc(F)cc3)n2)n2nnnc2C)n1` [compound 105], the LogP was found to be 2.78.
On the same count and under the same terms, the figure for `CCCCCCCCOC(=O)Nc1nc(CON=C(c2cnccc2OC)n2nnnc2C)cs1` [compound 147] is 5.03.
`CCCCCC(=O)Nc1cccc(CO/N=C(\c2cccc(C)n2)n2nnnc2C)n1` [compound 92, O-[2-(Pentylcarbonylamino)pyridin-6-yl]methyl-(6-methylpyridin-2-yl)-(5-methyltetrazol-1-yl)methanone Oxime]: the chromatographic logP was determined as 3.43.
The molecule `Cc1nnnn1C(=NOCc1csc(NC(=O)c2ccccc2)n1)c1ccc(Cl)nc1` [compound 36] gave a lipophilicity (LogP) of 2.87.
On the same count and under the same terms, the figure for `COc1cccc(CNC(=O)Nc2nc(CON=C(c3cccc(C)n3)n3nnnc3C)cs2)c1` [compound 104] is 2.59.
On the same count and under the same terms, the figure for `COCCOCC(=O)Nc1nc(CON=C(c2ccc(Cl)nc2)n2nnnc2C)cs1` [compound 78] is 2.4; for `Cc1nnnn1C(=NOCc1csc(NC(=O)c2ccco2)n1)c1ccc(Cl)nc1` [compound 69] it is 2.46.
On to `Cc1cccc(/C(=N\OCc2cccc(N)n2)n2nnnc2C)n1` [compound 87, O-(2-Aminopyridin-6-yl)methyl-(6-methylpyridin-2-yl)-(5-methyltetrazol-1-yl)methanone oxime], for which the chromatographic logP was found to be 1.18.
Molecule `Cc1nnnn1C(=NOCc1csc(NC(=O)NC(C)(C)C)n1)c1ccccn1` [compound 28] returned a LogP of 2.16.
`Cc1nnnn1/C(=N/OCc1csc(NC(=O)C(C)(C)C)n1)c1ccc(Cl)nc1` [compound 31] returned a chromatographic logP of 2.9.
In the case of `Cc1nnnn1C(=NOCc1nsc(N)n1)c1ccc(Cl)nc1` [compound 44], the LogP is on record as 1.78.
Still for that read-out and setting: the figure for `Cc1nnnn1C(=NOCc1nc(Cc2ccccc2)no1)c1ccc(Cl)nc1` [compound 49] is 3.09.
The same measure, in the same setting: the figure for `Cc1nnnn1C(=NOCc1csc(NC(=O)c2cccs2)n1)c1ccc(Cl)nc1` [compound 59] is 2.82; for `CCCNC(=O)Nc1nc(CON=C(c2cccc(C)n2)n2nnnc2C)cs1` [compound 103] it is 2.17.
On the same count and under the same terms, the figure for `COc1ncccc1C(=NOCc1nc(N)sc1Br)n1nnnc1C` [compound 153] is 2.27; for `Cc1cccc(C(=NOCc2noc(-c3ccc(C(C)(C)C)cc3)n2)n2nnnc2C)n1` [compound 93] it is 4.5; for `CCCNC(=O)Nc1nc(CON=C(c2ccccn2)n2nnnc2C)cs1` [compound 19] it is 1.95.
In turn, `COc1ccncc1C(=NOCc1csc(NC(=O)CCc2ccccc2)n1)n1nnnc1C` [compound 139] displayed a LogP of 3.31.
The molecule `Cc1nc(CON=C(c2ccc(Cl)nc2)n2nnnc2C)cs1` [compound 40] gave a LogP of 2.33.
Still for that read-out and setting: the figure for `COc1ccc(CCNC(=O)Nc2nc(CON=C(c3ccccn3)n3nnnc3C)cs2)cc1` [compound 22] is 2.44.
Still for that read-out and setting: the figure for `Cc1cccc(C(=NOCc2csc(NC(=O)NCCc3ccc(Cl)cc3Cl)n2)n2nnnc2C)n1` [compound 106] is 3.43.
The same measure, in the same setting: the figure for `Cc1nnnn1C(=NOCc1csc(NC(=O)NC2CC2)n1)c1ccccn1` [compound 26] is 1.61.
With `Cc1nnnn1C(=NOCc1csc(NC(=O)NCCc2cccc(Cl)c2)n1)c1ccccn1` [compound 24], the LogP is on record as 2.79.
On the same count and under the same terms, the figure for `COc1ccccc1CNC(=O)Nc1nc(CON=C(c2cccc(C)n2)n2nnnc2C)cs1` [compound 108] is 2.69; for `COc1ccc(C(=O)Nc2nc(CON=C(c3ccc(Cl)nc3)n3nnnc3C)cs2)cc1` [compound 57] it is 2.97.
Same read-out and setting: the figure for `COc1ncccc1C(=NOCc1cccc(N)n1)n1nnnc1C` [compound 152] is 1.03.
On the same count and under the same terms, the figure for `Cc1nnnn1C(=NOCc1nsc(N)n1)c1ccccn1` [compound 21] is 1.3.
`CCCCCC(=O)Nc1nc(CO/N=C(\c2ncccc2C)c2nnnn2C)cs1` [compound 158, O-(2-Pentylcarbonylmino-1,3-thiazol-4-yl)methyl-(3-methylpyridin-2-yl)-(1-methyltetrazol-5-yl)methanone oxime] registered a chromatographic logP of 2.94.
For the molecule `COCCC(=O)Nc1nonc1CON=C(c1ccc(Cl)nc1)n1nnnc1C` [compound 72], the LogP worked out at 2.17.
As to `Cc1nnnn1C(=NOCc1csc(N)n1)c1ccc(Cl)nc1` [compound 34], the LogP came to 1.27.
Same read-out and setting: the figure for `Cc1nnnn1C(=NOCc1csc(NC(=O)C2CCCCC2)n1)c1ccc(Cl)nc1` [compound 32] is 3.16.
`Cc1cccc(C(=NOCc2noc(-c3ccccc3)n2)n2nnnc2C)n1` [compound 95] gave a LogP of 3.11.
Same read-out and setting: the figure for `Cc1nnnn1C(=NOCc1csc(NC(=O)C2CCCC2)n1)c1ccc(Cl)nc1` [compound 58] is 2.97; for `COC(=O)c1coc(CON=C(c2cccc(C)n2)n2nnnc2C)n1` [compound 98] it is 2.01; for `Cc1nnnn1C(=NOCc1nonc1N)c1ccccn1` [compound 6] it is 1.52.
The same measure, in the same setting: the figure for `Cc1nnnn1C(=NOCc1csc(NC(=O)C2CC2)n1)c1ccccn1` [compound 14] is 1.99; for `Cc1nnnn1C(=NOCc1nonc1N)c1ccc(Cl)nc1` [compound 33] it is 1.88; for `Cc1nnnn1C(=NOCc1cccc(N)n1)c1ccccn1` [compound 9] it is 0.76.
The same measure, in the same setting: the figure for `Cc1cccnc1C(=NOCc1csc(NC(=O)Cc2ccccc2)n1)c1nnnn1C` [compound 159] is 2.62; for `Cc1nnnn1C(=NOCc1csc(N)n1)c1ccccn1` [compound 1] it is 0.83.
The molecule `Cc1cccc(C(=NOCc2nonc2N)n2nnnc2C)n1` [compound 84] had a LogP of 1.94.
Same read-out and setting: the figure for `Cc1cccc(C(=NOCc2noc(-c3cccc(C(F)(F)F)c3)n2)n2nnnc2C)n1` [compound 86] is 3.67; for `Cc1nnnn1C(=NOCc1noc(-c2ccco2)n1)c1ccccn1` [compound 11] it is 2.38.
In turn, `Cc1nnnn1C(=NOCc1csc(NC(=O)C2CC2)n1)c1ccc(Cl)nc1` [compound 39] registered a LogP of 2.36.
Same read-out and setting: the figure for `Cc1nnnn1C(=NOCc1noc(-c2ccc(C(C)(C)C)cc2)n1)c1ccc(Cl)nc1` [compound 50] is 4.47; for `Cc1ccc(OC(=O)Nc2nc(CON=C(c3ccc(Cl)nc3)n3nnnc3C)cs2)cc1` [compound 76] it is 3.48; for `Cc1cccc(C(=NOCc2csc(NC(=O)NCCc3ccc(Cl)c(Cl)c3)n2)n2nnnc2C)n1` [compound 102] it is 3.34.
The same measure, in the same setting: the figure for `C=C(C)C(=O)Nc1nc(CON=C(c2cccc(C)n2)n2nnnc2C)cs1` [compound 97] is 2.4; for `Cc1cccc(C(=NOCc2nsc(N)n2)n2nnnc2C)n1` [compound 96] it is 1.59.
`Cc1cccc(C(=NOCc2csc(NC(=O)NCCc3ccccc3)n2)n2nnnc2C)n1` [compound 107]: the LogP is on record as 2.72.
Consider `C=C(C)C(=O)Nc1nc(CON=C(c2ccccn2)n2nnnc2C)cs1` [compound 3], for which the LogP came to 2.06.
